Data published in patent publication US20110313156A1 (BOEHRINGER INGELHEIM INTERNATIONAL GMBH, priority 2008, published 2011).

The compounds below were run against T1, His6-PDK1 (aa 52-556) (Homo sapiens, UniProt O15530) (assay: PDK1 kinase assay III (with Tween 20)). Settings: compound at 10 μM; PDK1 kinase assay III (values without asterisk); read-out: % CTL (residual activity of the enzyme relative to DMSO control).
T1 construct: 15 μL His6-PDK1 (aa 52-556) 3.33 ng/well); host or cells: baculovirus-infected insect cells
T1 sequence (O15530 52-556): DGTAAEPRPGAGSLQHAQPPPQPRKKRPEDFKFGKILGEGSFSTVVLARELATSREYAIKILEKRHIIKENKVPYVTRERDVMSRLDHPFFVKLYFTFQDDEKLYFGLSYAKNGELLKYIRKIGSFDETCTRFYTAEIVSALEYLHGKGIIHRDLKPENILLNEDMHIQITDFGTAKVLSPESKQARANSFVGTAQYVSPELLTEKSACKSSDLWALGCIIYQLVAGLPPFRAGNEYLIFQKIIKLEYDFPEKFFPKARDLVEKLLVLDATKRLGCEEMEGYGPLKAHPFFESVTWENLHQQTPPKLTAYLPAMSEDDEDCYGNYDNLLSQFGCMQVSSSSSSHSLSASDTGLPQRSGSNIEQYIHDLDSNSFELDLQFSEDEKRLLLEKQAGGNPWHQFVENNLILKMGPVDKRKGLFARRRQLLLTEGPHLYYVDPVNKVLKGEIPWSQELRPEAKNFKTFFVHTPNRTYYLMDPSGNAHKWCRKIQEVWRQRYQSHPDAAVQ
Format: biochemical
Procedure, shortened: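 Started with ATP, incubated 90 min at ambient temperature, then stopped with phosphoric acid. Asterisked values come from assay II (24 h or 5 min incubation).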

SMILES | remaining activity at 10 µM
NCCOc1cc(C#CCNC(=O)c2cncn(Cc3ccc(F)c(F)c3)c2=O)cc2cnc(Nc3ccccc3)nc12 | 13.7%
COC(=O)c1ccc(Nc2ncc3cc(/C=C/CNC(=O)c4c(C)n(C)n(Cc5ccc(F)c(F)c5)c4=O)ccc3n2)cc1OC | 13.6%
O=C1Nc2cc(/C=C/CNC(=O)C3CCCN(Cc4ccc(F)c(F)c4)C3=O)ccc2/C1=C/c1cnc[nH]1 (stereo not shown) [I-9, 1-(3,4-difluorobenzyl)-N-{(2E)-3-[(3Z)-3-(1H-imidazol-5-ylmethylidene)-2-oxo-2,3-dihydro-1H-indol-6-yl]prop-2-en-1-yl}-2-oxopiperidine-3-carboxamide] | 25.7%
CN1CCC(N(C)c2ccc(Nc3ncc4cc(/C=C/CNC(=O)c5cn(C)c(=O)n(Cc6ccc(F)c(F)c6)c5=O)ccc4n3)cc2)CC1 [IV-44, 3-(3,4-difluorobenzyl)-1-methyl-N-{(2E)-3-[2-({4-[methyl(1-methylpiperidin-4-yl)amino]phenyl}amino)quinazolin-6-yl]prop-2-en-1-yl}-2,4-dioxo-1,2,3,4-tetrahydro-pyrimidine-5-carboxamide] | 16.3%
O=C1Nc2cc(/C=C/CNC(=O)c3cncn(Cc4ccc(F)c(F)c4)c3=O)ccc2/C1=C/c1c[nH]c(-c2cccnc2)n1 [I-36, 1-(3,4-difluorobenzyl)-6-oxo-N-{(2E)-3-[(3Z)-2-oxo-3-{[2-(pyridin-3-yl)-1H-imidazol-4-yl]methylidene}-2,3-dihydro-1H-indol-6-yl]prop-2-en-1-yl}-1,6-dihydropyrimidine-5-carboxamide] | 25.4%
O=C1Nc2cc(/C=C/CNC(=O)c3cccc(Nc4ccc(F)c(F)c4)n3)ccc2/C1=C/c1ccc[nH]1 [I-19, 6-[(3,4-difluorophenyl)amino]-N-{(2E)-3-[(3Z)-2-oxo-3-(1H-pyrrol-2-ylmethylidene)-2,3-dihydro-1H-indol-6-yl]prop-2-en-1-yl}pyridine-2-carboxamide] | 36.9%
Cc1c(C(=O)NC/C=C/c2ccc3nc(Nc4ccc(CN(C)C)cc4)ncc3c2)c(=O)n(Cc2ccccc2)n1C [IV-19, 2-benzyl-N-{(2E)-3-[2-({4-[(dimethylamino)methyl]phenyl}amino)quinazolin-6-yl]prop-2-en-1-yl}-1,5-dimethyl-3-oxo-2,3-dihydro-1H-pyrazole-4-carboxamide] | 12.6%
Cc1c(C(=O)NCc2ccc(Nc3ncnc4[nH]c(-c5ccccc5)cc34)cc2)c(=O)n(Cc2ccc(F)c(F)c2)n1C [IV-25, 2-(3,4-difluorobenzyl)-1,5-dimethyl-3-oxo-N-{4-[(6-phenyl-7H-pyrrolo[2,3-d]-pyrimidin-4-yl)amino]benzyl}-2,3-dihydro-1H-pyrazole-4-carboxamide] | 33.5%
NCCOc1cc(/C=C/CNC(=O)c2cncn(Cc3ccc(F)c(F)c3)c2=O)cc2cnc(Nc3ccc(N4CCOCC4)cc3)nc12 | 10.1%
Cn1cc(C(=O)NC/C=C/c2ccc3c(c2)NC(=O)/C3=C\c2cnc[nH]2)c(=O)n(Cc2ccc(F)c(F)c2)c1=O [I-43] | 20.3%
O=C(NC/C=C/c1ccc2nc(Nc3ccccc3)ncc2c1)c1cncn(Cc2ccc(F)c(F)c2)c1=O [IV-62] | 19.1%
COCCCNC(=O)c1ccc(Nc2ncc3cc(C#CCNC(=O)c4c(C)n(C)n(Cc5ccc(F)c(F)c5)c4=O)ccc3n2)cc1 | 12.1%
CN(C)Cc1ccc(Nc2ncc3cc(C#CCNC(=O)c4ccnn(Cc5ccc(F)c(F)c5)c4=O)ccc3n2)cc1 | 13.3%
Cc1c(C(=O)NC/C=C/c2ccc3nc(Nc4ccc(CN(C)C)cc4)ncc3c2F)c(=O)n(Cc2ccc(F)c(F)c2)n1C [IV-34, 2-(3,4-difluorobenzyl)-N-{(2E)-3-[2-({4-[(dimethylamino)methyl]phenyl}amino)-5-fluoroquinazolin-6-yl]prop-2-en-1-yl}-1,5-dimethyl-3-oxo-2,3-dihydro-1H-pyrazole-4-carboxamide] | 14.4%
CN(C)Cc1ccc(Nc2ncc3cc(/C=C/CNC(=O)c4ccnn(Cc5ccc(F)c(F)c5)c4=O)ccc3n2)cc1 [IV-51, 2-(3,4-difluorobenzyl)-N-{(2E)-3-[2-({4-[(dimethylamino)methyl]phenyl}-amino)quinazolin-6-yl]prop-2-en-1-yl}-3-oxo-2,3-dihydropyridazine-4-carboxamide] | 14.5%
Cc1c(C(=O)NCC#Cc2ccc3nc(Nc4ccc(C#N)cc4)ncc3c2)c(=O)n(Cc2ccc(F)c(F)c2)n1C [III-45, N-(3-{2-[(4-cyanophenyl)amino]quinazolin-6-yl}prop-2-yn-1-yl)-2-(3,4-difluorobenzyl)-1,5-dimethyl-3-oxo-2,3-dihydro-1H-pyrazole-4-carboxamide] | 19.8%
Cc1c(C(=O)NC/C=C/c2cc(OCCCN)c3nc(Nc4ccc(N5CCOCC5)cc4)ncc3c2)c(=O)n(Cc2ccc(F)c(F)c2)n1C | 12.5%

SMILES | remaining activity at 10 µM
Cc1c(C(=O)NCC#Cc2ccc3nc(Nc4ccc(C(=O)NCCCN(C)C)cc4)ncc3c2)c(=O)n(Cc2ccc(F)c(F)c2)n1C | 13.1%
Cc1c(C(=O)NCC#Cc2ccc3nc(Nc4ccc(C(=O)NC5CCN(C)CC5)c(Cl)c4)ncc3c2)c(=O)n(Cc2ccc(F)c(F)c2)n1C | 16.1%
COc1ccc(Nc2ncc3cc(/C=C/CNC(=O)c4cncn(Cc5ccc(F)c(F)c5)c4=O)ccc3n2)cc1 | 13.8%
CCOC(=O)c1ccc(Nc2ncc3cc(C#CCNC(=O)c4cncn(Cc5ccc(F)c(F)c5)c4=O)ccc3n2)cc1 [III-39, ethyl-4-({6-[3-({[1-(3,4-difluorobenzyl)-6-oxo-1,6-dihydropyrimidin-5-yl]carbonyl}amino)prop-1-yn-1-yl]quinazolin-2-yl}amino)benzoate] | 19%
CC1CCC(NC(=O)c2ccc(Nc3ncc4cc(C#CCNC(=O)c5cncn(Cc6ccc(F)c(F)c6)c5=O)ccc4n3)cc2)CC1 (stereo not shown) | 19.7%
CN1CCC(Nc2ccc(Nc3ncc4cc(/C=C/CNC(=O)c5nccn(Cc6ccc(F)c(F)c6)c5=O)ccc4n3)cc2F)CC1 [IV-50, 4-(3,4-difluorobenzyl)-N-{(2E)-3-[2-({3-fluoro-4-[(1-methylpiperidin-4-yl)amino]-phenyl}amino)quinazolin-6-yl]prop-2-en-1-yl}-3-oxo-3,4-dihydropyrazine-2-carboxamide] | 11.6%
NCCOc1cc(/C=C/CNC(=O)c2cncn(Cc3ccc(F)c(F)c3)c2=O)cc2cnc(Nc3ccccc3)nc12 [III-63] | 14.2%
CNc1ncc2cc(/C=C/CNC(=O)c3cncn(Cc4ccc(F)c(F)c4)c3=O)ccc2n1 | 21.7%
COC(=O)c1ccc(Nc2ncc3cc(/C=C/CNC(=O)c4cncn(Cc5ccc(F)c(F)c5)c4=O)ccc3n2)cc1Cl | 22.5%
O=C1Nc2cc(/C=C/CNC(=O)c3cncn(Cc4ccc(F)c(F)c4)c3=O)ccc2/C1=C/c1ncc[nH]1 [I-37, 1-(3,4-difluorobenzyl)-N-{(2E)-3-[(3Z)-3-(1H-imidazol-2-ylmethylidene)-2-oxo-2,3-dihydro-1H-indol-6-yl]prop-2-en-1-yl}-6-oxo-1,6-dihydropyrimidine-5-carboxamide] | 16.6%
Cc1c(C(=O)NCC#Cc2ccc3nc(NC4CCOCC4)ncc3c2)c(=O)n(Cc2ccc(F)c(F)c2)n1C | 25%
CN(C)Cc1ccc(Nc2ncc3cc(/C=C/CNC(=O)c4cncn(Cc5ccc(F)c(F)c5)c4=O)ccc3n2)cc1 [IV-3, 1-(3,4-difluorobenzyl)-N-{(2E)-3-[2-({4-[(dimethylamino)methyl]phenyl}amino)-quinazolin-6-yl]prop-2-en-1-yl}-6-oxo-1,6-dihydropyrimidine-5-carboxamide] | 11.1%
CN1CCC(N(C)c2ccc(Nc3ncc4c(F)c(C#CCNC(=O)c5cncn(Cc6ccc(F)c(F)c6)c5=O)ccc4n3)cc2)CC1 [III-26, 1-(3,4-difluorobenzyl)-N-{3-[5-fluoro-2-({4-[methyl(1-methylpiperidin-4-yl)amino]phenyl}amino)quinazolin-6-yl]prop-2-yn-1-yl}-6-oxo-1,6-dihydropyrimidine-5-carboxamide] | 12.4%
Cc1c(C(=O)NC/C=C/c2ccc3c(c2)NC(=O)/C3=C\c2nc[nH]c2CN)c(=O)n(Cc2ccc(F)c(F)c2)n1C [I-50, N-{(2E)-3-[(3Z)-3-{[5-(aminomethyl)-1H-imidazol-4-yl]methylidene}-2-oxo-2,3-dihydro-1H-indol-6-yl]prop-2-en-1-yl}-2-(3,4-difluorobenzyl)-1,5-dimethyl-3-oxo-2,3-di-hydro-1H-pyrazole-4-carboxamide] | 16.6%
CN(C)CCCNC(=O)c1ccc(Nc2ncc3cc(C#CCNC(=O)c4cncn(Cc5ccc(F)c(F)c5)c4=O)ccc3n2)cc1 | 18.3%
CN(C)Cc1ccc(Nc2ncc3c(F)c(/C=C/CNC(=O)c4cncn(Cc5ccc(F)c(F)c5)c4=O)ccc3n2)cc1 [IV-33, 1-(3,4-difluorobenzyl)-N-{(2E)-3-[2-({4-[(dimethylamino)methyl]phenyl}amino)-5-fluoroquinazolin-6-yl]prop-2-en-1-yl}-6-oxo-1,6-dihydropyrimidine-5-carboxamide] | 14.9%
Cc1c(C(=O)NC/C=C/c2ccc3nc(Nc4ccc(C(=O)NC5CCN(C)CC5)c(F)c4)ncc3c2)c(=O)n(Cc2ccc(F)c(F)c2)n1C | 18.1%
